From patent publication US20260272902A1, “C[…] ACID SALT FORM OF A CCR6 ANTAGONIST” (Idorsia Pharmaceuticals Ltd, priority 2022, published 2026)

Test: Gravimetric vapor sorption (GVS) analysis / hygroscopicity
Type: physicochemical
Conditions: GVS at 25° C., FIG. 4
Procedure: Gravimetric vapor sorption analysis was performed with SPS 100n (ProUmid GmbH & Co. KG). An appropriate amount of the sample was placed into a tared aluminum pan without any pre-treatment. The analysis was run at a temperature of 25° C. with the following humidity program: 40%-0%-95%-40% in steps of 5% with maximum equilibration time of 24 h at each step. Analyzing software was ProUmid Excel template #SPS_4_3_23_E2010_drycorr.xltm.

## 2-(3-{5-[(R)-(1,3-dimethyl-azetidin-3-yl)-hydroxy-(4-isopropyl-phenyl)-methyl]-pyridin-3-yl}-[1,2,4]oxadiazol-5-yl)-propan-2-ol adipic acid salt
  Hygroscopicity classification acc. to Eur. Phar.: is classified as non-hygroscopic acc. to Eur. Phar.
Between 40% and 80% RH
  Hygroscopicity: water uptake: Less than 0.1% water uptake between 40% and 80% RH. Sample
